In DBAASP:
≈ marks a conversion by molar mass, not a printed value.

Key:
Assay in all cases: ≥ marks a high value that may be exact or a test limit, other limits are often not marked, values filed in µg/mL are converted to µM
[1] = system: Acinetobacter baumannii 97830
[2] = system: Acinetobacter baumannii 9931
[3] = system: Acinetobacter baumannii ATCC 19606
[4] = system: Bacillus subtilis ATCC 23857
Escherichia coli 780 = system: Escherichia coli 780
Escherichia coli 804 = system: Escherichia coli 804
[5] = system: Klebsiella pneumoniae ATCC 700603
[6] = system: Pseudomonas aeruginosa 50
[7] = system: Pseudomonas aeruginosa 73
[8] = system: Pseudomonas aeruginosa ATCC 27853
[9] = system: Pseudomonas aeruginosa ATCC 9027
[10] = system: Staphylococcus aureus 113
Staphylococcus aureus 75 = system: Staphylococcus aureus 75
[11] = system: Staphylococcus aureus ATCC 29213
[12] = system: Staphylococcus epidermidis ATCC 12228
Bacillus subtilis 168 = system: Bacillus subtilis 168
[13] = system: Candida albicans F7-39/IDE99
Escherichia coli B = system: Escherichia coli B
Pseudomonas aeruginosa = system: Pseudomonas aeruginosa
Staphylococcus aureus = system: Staphylococcus aureus
[14] = system: Bacillus subtilis ATCC 9372
[15] = system: Escherichia coli ATCC 25922
[16] = system: Salmonella typhimurium ATCC 50013
[17] = system: Shigella dysenteriae ATCC 51302
[18] = system: Staphylococcus aureus ATCC 25923
[19] = system: Streptococcus pneumoniae ATCC 49619
Escherichia coli W3110 = system: Escherichia coli W3110
[20] = system: Klebsiella pneumoniae ATCC BAA-1705
[21] = system: Bacillus subtilis ATCC 6633
[22] = system: Enterococcus faecalis ATCC 12953
[23] = system: Escherichia coli ATCC 8739
[24] = system: Klebsiella pneumoniae ATCC 13885
[25] = system: Proteus mirabilis ATCC 25933
[26] = system: Pseudomonas aeruginosa ATCC 15442
[27] = system: Salmonella enterica subsp. enterica serovar Typhimurium ATCC 14028
[28] = system: Streptococcus pyogenes ATCC 19615

Row | MIC [1] [µM] | MIC [2] [µM] | MIC [3] [µM] | MIC [4] [µM] | MIC (Escherichia coli 780) [µM] | MIC (Escherichia coli 804) [µM] | MIC [5] [µM] | MIC [6] [µM] | MIC [7] [µM] | MIC [8] [µM] | MIC [9] [µM] | MIC [10] [µM] | MIC (Staphylococcus aureus 75) [µM] | MIC [11] [µM] | MIC [12] [µM] | MIC (Escherichia coli W3110) [µM] | MIC [20] [µM] | SMILES | other results
1 | 8 (≈ 11.2 µg/mL) | ≥ 32 | 32 (≈ 44.9 µg/mL) | 8 (≈ 11.2 µg/mL) | 16 (≈ 22.4 µg/mL) | 8 (≈ 11.2 µg/mL) | 8 (≈ 11.2 µg/mL) | ≥ 32 | ≥ 32 | 32 (≈ 44.9 µg/mL) | 32 (≈ 44.9 µg/mL) | 8 (≈ 11.2 µg/mL) | 4 (≈ 5.61 µg/mL) | 8 (≈ 11.2 µg/mL) | 8 (≈ 11.2 µg/mL) | – | – | C[C@H](N)C(=O)N[C@@H](Cc1c[nH]c2ccccc12)C(=O)N[C@@H](CCCN=C(N)N)C(=O)N[C@@H](Cc1c[nH]c2ccccc12)C(=O)N[C@@H](Cc1c[nH]c2ccccc12)C(=O)N[C@@H](Cc1c[nH]c2ccccc12)C(=O)N[C@@H](CCCN=C(N)N)C(=O)N[C@@H](Cc1c[nH]c2ccccc12)C(=O)N[C@@H](C)C(N)=O [AWRWWWRWA] | –
2 | 8 (≈ 12 µg/mL) | 16 (≈ 23.9 µg/mL) | 16 (≈ 23.9 µg/mL) | 2 (≈ 2.99 µg/mL) | 16 (≈ 23.9 µg/mL) | 16 (≈ 23.9 µg/mL) | 16 (≈ 23.9 µg/mL) | 4 (≈ 5.98 µg/mL) | 16 (≈ 23.9 µg/mL) | 4 (≈ 5.98 µg/mL) | 8 (≈ 12 µg/mL) | 8 (≈ 12 µg/mL) | 4 (≈ 5.98 µg/mL) | 4 (≈ 5.98 µg/mL) | 8 (≈ 12 µg/mL) | – | – | NC(=O)[C@H](Cc1ccccc1)NC(=O)[C@H](CCCN=C(N)N)NC(=O)[C@H](CCCN=C(N)N)NC(=O)[C@H](Cc1c[nH]c2ccccc12)NC(=O)[C@H](Cc1c[nH]c2ccccc12)NC(=O)[C@H](Cc1c[nH]c2ccccc12)NC(=O)[C@H](CCCN=C(N)N)NC(=O)[C@H](CCCN=C(N)N)NC(=O)[C@@H](N)Cc1ccccc1 [FRRWWWRRF] | –
3 | – | – | – | – | – | – | – | – | – | – | – | – | – | – | – | – | – | CC[C@H](C)[C@H](NC(=O)[C@H](Cc1cnc[nH]1)NC(=O)[C@H](CCCCN)NC(=O)[C@H](CC(C)C)NC(=O)[C@H](Cc1ccccc1)NC(=O)[C@H](CO)NC(=O)[C@H](CCSC)NC(=O)[C@H](Cc1c[nH]c2ccccc12)NC(=O)[C@H](CCCCN)NC(=O)CN)C(=O)N[C@@H](CC(C)C)C(=O)N[C@@H](CCCCN)C(N)=O [GKWMSFLKHILK] | MIC (Bacillus subtilis 168): 1.1 µM (≈ 1.64 µg/mL); MIC [13]: 6.8 µM (≈ 10.1 µg/mL); MIC (Escherichia coli B): 4 µM (≈ 5.95 µg/mL); MIC (Pseudomonas aeruginosa): 21.8 µM (≈ 32.4 µg/mL); MIC (Staphylococcus aureus): 6.4 µM (≈ 9.52 µg/mL)
4 | – | – | – | – | – | – | – | – | – | 57.9 (≈ 64 µg/mL) | – | – | – | – | – | – | – | CC(C)C[C@H](NC(=O)CN)C(=O)N[C@@H](CO)C(=O)N[C@@H](CCCN=C(N)N)C(=O)N[C@@H](CC(C)C)C(=O)N[C@@H](Cc1ccccc1)C(=O)N[C@H](C(=O)N[C@@H](C)C(=O)N[C@@H](CC(C)C)C(=O)N[C@@H](CCCCN)C(=O)O)[C@@H](C)O [GLSRLFTALK] | MIC [14]: 14.5 µM (≈ 16 µg/mL); MIC [15]: 29 µM (≈ 32 µg/mL); MIC [16]: 29 µM (≈ 32 µg/mL); MIC [17]: ≥ 232 µM; MIC [18]: 14.5 µM (≈ 16 µg/mL); MIC [19]: ≥ 57.9 µM
5 | – | – | – | – | – | – | – | – | – | – | – | – | – | – | – | 4 (≈ 8.6 µg/mL) | ≥ 128 | CC[C@H](C)[C@H](N)C(=O)N[C@@H](CC(C)C)C(=O)N[C@H](C(=O)N[C@@H](C)C(=O)N[C@@H](CS)C(=O)N[C@@H](Cc1c[nH]c2ccccc12)C(=O)NCC(=O)N[C@@H](CC(C)C)C(=O)N[C@@H](CCCCN)C(=O)N[C@@H](CC(C)C)C(=O)N[C@@H](CC(C)C)C(=O)N[C@@H](CCCN=C(N)N)C(=O)N[C@@H](Cc1ccc(O)cc1)C(=O)N[C@@H](CCCN=C(N)N)C(=O)N[C@@H](CCCN=C(N)N)C(=O)N[C@H](C(=O)N[C@@H](Cc1ccc(O)cc1)C(=O)O)[C@@H](C)CC)[C@@H](C)CC [ILIACWGLKLLRYRRIY] | –
6 | ≥ 32 | ≥ 32 | 64 (≈ 71.3 µg/mL) | 8 (≈ 8.91 µg/mL) | 16 (≈ 17.8 µg/mL) | 16 (≈ 17.8 µg/mL) | 32 (≈ 35.7 µg/mL) | ≥ 32 | ≥ 32 | 16 (≈ 17.8 µg/mL) | 32 (≈ 35.7 µg/mL) | 8 (≈ 8.91 µg/mL) | 8 (≈ 8.91 µg/mL) | 4 (≈ 4.46 µg/mL) | 8 (≈ 8.91 µg/mL) | – | – | CC[C@H](C)[C@H](N)C(=O)N[C@@H](CCCN=C(N)N)C(=O)N[C@@H](Cc1c[nH]c2ccccc12)C(=O)N[C@@H](Cc1c[nH]c2ccccc12)C(=O)N[C@@H](Cc1c[nH]c2ccccc12)C(=O)N[C@@H](CCCN=C(N)N)C(=O)N[C@H](C(N)=O)[C@@H](C)CC [IRWWWRI] | –
7 | – | – | – | – | – | – | – | – | – | – | – | – | – | – | – | ≥ 64 | ≥ 128 | CC[C@H](C)[C@H](N)C(=O)N[C@@H](Cc1c[nH]c2ccccc12)C(=O)N[C@@H](Cc1c[nH]c2ccccc12)C(=O)N[C@@H](C)C(=O)N[C@@H](CCCCN)C(=O)N[C@@H](Cc1c[nH]c2ccccc12)C(=O)NCC(=O)N[C@@H](CC(C)C)C(=O)N[C@@H](CC(=O)O)C(=O)N[C@@H](CC(C)C)C(=O)N[C@@H](CC(C)C)C(=O)N[C@@H](CCCN=C(N)N)C(=O)N[C@@H](Cc1ccc(O)cc1)C(=O)N[C@@H](CCCN=C(N)N)C(=O)N[C@@H](CCCN=C(N)N)C(=O)N[C@H](C(=O)N[C@@H](Cc1c[nH]c2ccccc12)C(=O)O)[C@@H](C)CC [IWWAKWGLDLLRYRRIW] | –
8 | – | – | – | – | – | – | – | – | – | – | – | – | – | – | – | 2 (≈ 4.75 µg/mL) | 16 (≈ 38 µg/mL) | CC[C@H](C)[C@H](NC(=O)[C@H](CCCCN)NC(=O)[C@H](CCCCN)NC(=O)[C@H](Cc1c[nH]c2ccccc12)NC(=O)[C@H](CCCCN)NC(=O)[C@H](Cc1c[nH]c2ccccc12)NC(=O)[C@H](CC(C)C)NC(=O)[C@H](CCCCN)NC(=O)[C@H](CC(C)C)NC(=O)CNC(=O)[C@H](Cc1c[nH]c2ccccc12)NC(=O)[C@H](CCCCN)NC(=O)[C@H](C)NC(=O)[C@H](Cc1c[nH]c2ccccc12)NC(=O)[C@H](CCCN=C(N)N)NC(=O)[C@@H](N)Cc1c[nH]c2ccccc12)C(=O)N[C@@H](Cc1ccc(O)cc1)C(=O)O [WRWAKWGLKLWKWKKIY] | –

Row | SMILES | MIC [1] [µM] | MIC [2] [µM] | MIC [3] [µM] | MIC [4] [µM] | MIC (Escherichia coli 780) [µM] | MIC (Escherichia coli 804) [µM] | MIC [5] [µM] | MIC [6] [µM] | MIC [7] [µM] | MIC [8] [µM] | MIC [9] [µM] | MIC [10] [µM] | MIC (Staphylococcus aureus 75) [µM] | MIC [11] [µM] | MIC [12] [µM] | MIC (Escherichia coli W3110) [µM] | MIC [20] [µM] | other results
9 | NCCCC[C@H](NC(=O)[C@@H](N)CCCCN)C(=O)N[C@@H](Cc1ccccc1)C(=O)N[C@@H](Cc1c[nH]c2ccccc12)C(=O)N[C@@H](CCC(=O)O)C(=O)N[C@@H](CC(=O)O)C(=O)N[C@@H](CC(=O)O)C(=O)NCC(N)=O [KKFWEDDG] | – | – | – | – | – | – | – | – | – | – | – | – | – | 250 (≈ 256 µg/mL) | – | – | – | MIC [21]: ≥ 250 µM; MIC [22]: ≥ 125 µM; MIC [23]: ≥ 250 µM; MIC [24]: ≥ 125 µM; MIC [25]: ≥ 125 µM; MIC [26]: ≥ 250 µM; MIC [27]: 125 µM (≈ 128 µg/mL); MIC [28]: ≥ 125 µM
